Measurements from patent publication US20220106296A1, “CYANOTRIAZOLE COMPOUNDS AND USES THEREOF” (Novartis AG, priority 2018, published 2022).

Assays:
[1] = system: T. b. brucei Lister427 bloodstream form parasites; experiment: T. b. brucei growth inhibition assay (CellTiter-Glo, 48 hours); assay type: cell-based; details: Trypanosoma brucei
Text: Bloodstream form of T. b. brucei Lister427 strain was obtained from the Genomics Institute of the Novartis Research Foundation. This strain was used for carrying out growth inhibition and kill kinetics assays. T. b. gambiense STIB930 and T. b. rhodesiense STIB900 were obtained from Swiss TPH, were used for carrying out the growth inhibition assays.
Bloodstream form T. b. brucei Lister 427 parasites were continuously passaged in HMI-9 medium formulated from IMDM medium (Invitrogen), 10% heat-inactivated fetal bovine serum (FBS), 10% Serum Plus medium supplement (SAFC Biosciences), 1 mM hypoxanthine (Sigma-Aldrich), 50 μM bathocuproine disulfonic acid (Sigma-Aldrich), 1.5 mM cysteine (Sigma-Aldrich), 1 mM pyruvic acid (Sigma-Aldrich), 39 μg/mL thymidine (Sigma-Aldrich), and 14 μL/L beta-mercapthoethanol (Sigma-Aldrich); all concentrations of added components refer to that in complete HMI-9 medium. The parasites were cultured in 10 mL of HMI-9 medium in T75 CELL-STAR tissue culture flasks at 37° C./5% CO2.
To determine compound growth inhibitory potency on T. b. brucei Lister427 bloodstream form parasites, 200 nL of 10-point, 3 fold serially diluted compounds in DMSO were transferred to the wells of white, solid bottom 384-well plates (Greiner Bio-One) by either Echo 555 acoustic liquid handling system or Mosquito. Then, 1×10^4 of T. b. brucei parasites in 40 μL of HMI-9 medium were added to each well, and the plates were incubated for 48 hours at 37° C. in 5% CO2 incubators. Parasite numbers in individual plate wells were determined through quantification of intracellular ATP amount. The CellTiter-Glo luminescent cell viability reagent (Promega) was added to plate wells, and ATP-dependent luminescence signal was measured on Tecan M1000 plate Reader after 30 min incubation. Luminescence values in wells with compounds were divided by the average luminescence value of the plate DMSO controls, and used for calculation of compound IC50 values.

[2] = system: intracellular T. cruzi amastigotes; experiment: T. cruzi amastigote growth inhibition assay (NIH 3T3 host cells, β-galactosidase readout); assay type: cell-based; details: Trypanosoma cruzi, NIH3T3, read-out: (c) T.c.* IC50
Method: NIH 3T3 fibroblast cells (ATCC) were maintained in RPMI-1640 medium (Life Technologies) supplemented with 10% heat-inactivated fetal bovine serum and 100 IU penicillin/100 μg/ml streptomycin at 37° C./5% CO2. T. cruzi Tulahuen parasites constitutively expressing E. coli β-galactosidase were maintained in tissue culture as an infection in NIH 3T3 fibroblast cells. Briefly, 2×10^7 T. cruzi trypomastigotes were used to infect 6×10^5 NIH 3T3 cells growing in T75 CELLSTAR tissue culture flasks and cultured at 37° C./5% CO2 until proliferating intracellular parasites lysed host 3T3 cells and were released into the culture medium (typically 6-7 days). During the infection, the tissue culture medium was changed every two days. Number of T. cruzi trypomastigotes present in 1 ml of medium was determined using a haemocytometer.
To determine compound potency on intracellular T. cruzi amastigotes, NIH 3T3 cells were re-suspended in phenol red-free RPMI-1640 medium containing 3% heat-inactivated fetal bovine serum and 100 IU penicillin/100 μg/ml streptomycin, seeded at 1,000 cells/well (40 μl) in white, clear bottom 384-well plates (Greiner Bio-One), and incubated overnight at 37° C./5% CO2. The following day, 100 nl of each compound in DMSO were transferred to individual plate wells by Echo 555 acoustic liquid handling system. After one hour incubation, 1×10^6 of tissue culture-derived T. cruzi trypomastigotes, in 10 μl of phenol red-free RPMI-1640 medium supplemented with 3% heat-inactivated fetal bovine serum and 100 IU penicillin/100 μg/ml streptomycin were added to each well. Plates were then incubated for 6 days at 37° C./5% CO2. Intracellular T. cruzi parasites were quantified by measuring the activity of parasite-expressed β-galactosidase. Ten microliters of a chromogenic β-galactosidase substrate solution (0.6 mM chlorophenol red-β-D-galactopyranoside/0.6% NP-40 in PBS; both reagents from Calbiochem) were added to each well and incubated for 2 h at room temperature. After incubation, absorption was measured at 570 nm on SpectraMax M2 plate reader (Molecular Devices). Measured absorbance values in wells with compounds were divided by the average absorbance value of the plate DMSO controls, and used for calculation of compound EC50 values as described above.

Compound	IC50 [1] [nM]	IC50 [2] [nM]
N#Cc1ncn(CC(=O)N2Cc3ccc(-c4cccnc4C(F)F)cc3C2)n1 [Example 1, 1-(2-(5-(2-(difluoromethyl)pyridin-3-yl)isoindolin-2-yl)-2-oxoethyl)-1H-1,2,4-triazole-3-carbonitrile]	100 to 1000	100 to 1000
N#Cc1ncn(CC(=O)N2Cc3ccc(-c4c(Cl)cncc4C(F)(F)F)cc3C2)n1 [Example 2, 1-(2-(5-(3-chloro-5-(trifluoromethyl)pyridin-4-yl)isoindolin-2-yl)-2-oxoethyl)-1H-1,2,4-triazole-3-carbonitrile]	100 to 1000	< 100
N#Cc1ncn(CC(=O)N2Cc3ccc(-c4cc(F)ncc4Cl)cc3C2)n1 [Example 3, 1-(2-(5-(5-chloro-2-fluoropyridin-4-yl)isoindolin-2-yl)-2-oxoethyl)-1H-1,2,4-triazole-3-carbonitrile]	< 100	< 100
N#Cc1ncn(CC(=O)N2Cc3ccc(-c4cccc(Cl)c4C(F)(F)F)cc3C2)n1 [Example 4, 1-(2-(5-(3-chloro-2-(trifluoromethyl)phenyl)isoindolin-2-yl)-2-oxoethyl)-1H-1,2,4-triazole-3-carbonitrile]	< 100	< 100
N#Cc1ncn(CC(=O)N2Cc3ccc(-c4cccnc4OCC(F)(F)F)cc3C2)n1 [Example 5, 1-(2-oxo-2-(5-(2-(2,2,2-trifluoroethoxy)pyridin-3-yl)isoindolin-2-yl)ethyl)-1H-1,2,4-triazole-3-carbonitrile]	100 to 1000	100 to 1000
Cc1ccc(-c2ccc3c(c2)CN(C(=O)Cn2cnc(C#N)n2)C3)c(C(F)(F)F)n1 [Example 6, 1-(2-(5-(6-methyl-2-(trifluoromethyl)pyridin-3-yl)isoindolin-2-yl)-2-oxoethyl)-1H-1,2,4-triazole-3-carbonitrile]	< 100	< 100
N#Cc1ncn(CC(=O)N2Cc3ccc(-c4c(C(F)(F)F)ccnc4Cl)cc3C2)n1 [Example 7, 1-(2-(5-(2-chloro-4-(trifluoromethyl)pyridin-3-yl)isoindolin-2-yl)-2-oxoethyl)-1H-1,2,4-triazole-3-carbonitrile]	100 to 1000	< 100
N#Cc1ncn(CC(=O)N2Cc3ccc(-c4cncc(F)c4C(F)(F)F)cc3C2)n1 [Example 9, 1-(2-(5-(5-fluoro-4-(trifluoromethyl)pyridin-3-yl)isoindolin-2-yl)-2-oxoethyl)-1H-1,2,4-triazole-3-carbonitrile]	100 to 1000	100 to 1000
N#Cc1ncn(CC(=O)N2Cc3ccc(-c4c(F)cc(F)cc4Cl)cc3C2)n1 [Example 10, 1-(2-(5-(2-chloro-4,6-difluorophenyl)isoindolin-2-yl)-2-oxoethyl)-1H-1,2,4-triazole-3-carbonitrile]	< 100	< 100
N#Cc1ncn(CC(=O)N2Cc3ccc(-c4ccc(F)cc4N4CCCC4)cc3C2)n1 [Example 11, 1-(2-(5-(4-fluoro-2-(pyrrolidin-1-yl)phenyl)isoindolin-2-yl)-2-oxoethyl)-1H-1,2,4-triazole-3-carbonitrile]	100 to 1000	100 to 1000
N#Cc1ncn(CC(=O)N2Cc3ccc(-c4c(F)cccc4C(F)(F)F)cc3C2)n1 [Example 12, 1-(2-(5-(2-fluoro-6-(trifluoromethyl)phenyl)isoindolin-2-yl)-2-oxoethyl)-1H-1,2,4-triazole-3-carbonitrile]	< 100	< 100
Cc1ncccc1-c1ccc2c(c1)CN(C(=O)Cn1cnc(C#N)n1)C2 [Example 13, 1-(2-(5-(2-methylpyridin-3-yl)isoindolin-2-yl)-2-oxoethyl)-1H-1,2,4-triazole-3-carbonitrile]	100 to 1000	100 to 1000
COc1ccc(-c2ccc3c(c2)CN(C(=O)Cn2cnc(C#N)n2)C3)c(C(F)(F)F)n1 [Example 14, 1-(2-(5-(6-methoxy-2-(trifluoromethyl)pyridin-3-yl)isoindolin-2-yl)-2-oxoethyl)-1H-1,2,4-triazole-3-carbonitrile]	100 to 1000	< 100
N#Cc1ncn(CC(=O)N2Cc3ccc(-c4c(F)ccc(F)c4Cl)cc3C2)n1 [Example 15, 1-(2-(5-(2-chloro-3,6-difluorophenyl)isoindolin-2-yl)-2-oxoethyl)-1H-1,2,4-triazole-3-carbonitrile]	< 100	< 100
N#Cc1ncn(CC(=O)N2Cc3ccc(-c4c(F)cncc4C(F)(F)F)cc3C2)n1 [Example 16, 1-(2-(5-(3-fluoro-5-(trifluoromethyl)pyridin-4-yl)isoindolin-2-yl)-2-oxoethyl)-1H-1,2,4-triazole-3-carbonitrile]	100 to 1000	< 100
N#Cc1ncn(CC(=O)N2Cc3ccc(-c4cccnc4OC(F)(F)F)cc3C2)n1 [Example 17, 1-(2-oxo-2-(5-(2-(trifluoromethoxy)pyridin-3-yl)isoindolin-2-yl)ethyl)-1H-1,2,4-triazole-3-carbonitrile]	100 to 1000	100 to 1000
N#Cc1ncn(CC(=O)N2Cc3ccc(-c4c(Cl)ccnc4C(F)(F)F)cc3C2)n1 [Example 18, 1-(2-(5-(4-chloro-2-(trifluoromethyl)pyridin-3-yl)isoindolin-2-yl)-2-oxoethyl)-1H-1,2,4-triazole-3-carbonitrile]	100 to 1000	< 100
N#Cc1ncn(CC(=O)N2Cc3ccc(-c4cccnc4CC(F)(F)F)cc3C2)n1 [Example 19, 1-(2-oxo-2-(5-(2-(2,2,2-trifluoroethyl)pyridin-3-yl)isoindolin-2-yl)ethyl)-1H-1,2,4-triazole-3-carbonitrile]	100 to 1000	100 to 1000
N#Cc1ncn(CC(=O)N2Cc3ccc(-c4c(F)ccnc4C(F)(F)F)cc3C2)n1 [Example 20, 1-(2-(5-(4-fluoro-2-(trifluoromethyl)pyridin-3-yl)isoindolin-2-yl)-2-oxoethyl)-1H-1,2,4-triazole-3-carbonitrile]	< 100	< 100
N#Cc1ncn(CC(=O)N2Cc3ccc(-c4c(F)ccnc4Cl)cc3C2)n1 [Example 21, 1-(2-(5-(2-chloro-4-fluoropyridin-3-yl)isoindolin-2-yl)-2-oxoethyl)-1H-1,2,4-triazole-3-carbonitrile]	100 to 1000	< 100
N#Cc1ncn(CC(=O)N2Cc3ccc(-c4c(C(F)(F)F)ccnc4F)cc3C2)n1 [Example 22, 1-(2-(5-(2-fluoro-4-(trifluoromethyl)pyridin-3-yl)isoindolin-2-yl)-2-oxoethyl)-1H-1,2,4-triazole-3-carbonitrile]	100 to 1000	< 100
N#Cc1ncn(CC(=O)N2Cc3ccc(-c4c(F)cncc4Cl)cc3C2)n1 [Example 23, 1-(2-(5-(3-chloro-5-fluoropyridin-4-yl)isoindolin-2-yl)-2-oxoethyl)-1H-1,2,4-triazole-3-carbonitrile]	< 100	100 to 1000
N#Cc1ncn(CC(=O)N2Cc3ccc(-c4c(Cl)ccnc4F)cc3C2)n1 [Example 24, 1-(2-(5-(4-chloro-2-fluoropyridin-3-yl)isoindolin-2-yl)-2-oxoethyl)-1H-1,2,4-triazole-3-carbonitrile]	100 to 1000	100 to 1000
Cn1cc(-c2ccc3c(c2)CN(C(=O)Cn2cnc(C#N)n2)C3)c(C(F)(F)F)n1 [Example 25, 1-(2-(5-(1-methyl-3-(trifluoromethyl)-1H-pyrazol-4-yl)isoindolin-2-yl)-2-oxoethyl)-1H-1,2,4-triazole-3-carbonitrile]	100 to 1000	100 to 1000
